Measured values: PubChem BioAssay (NCI)
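These data come from cells grown in 96-well plates and exposed to compound for 48 hours at five concentrations. GI50 marks 50% less growth. At the TGI there is no net growth.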

What was measured:
Experiment in all cases: NCI-60 cell line screen, 48 h
[1] = system: CAKI-1 renal
[2] = system: SW-620 colon
[3] = system: OVCAR-8 ovarian
[4] = system: ACHN renal
[5] = system: NCI/ADR-RES ovarian
[6] = system: A498 renal
[7] = system: K-562 leukemia
[8] = system: SK-MEL-2 melanoma
[9] = system: M14 melanoma
[10] = system: CCRF-CEM leukemia
[11] = system: MOLT-4 leukemia
[12] = system: HCT-15 colon
[13] = system: DU-145 prostate
[14] = system: OVCAR-5 ovarian
[15] = system: PC-3 prostate
[16] = system: RXF 393 renal
[17] = system: SK-OV-3 ovarian
[18] = system: EKVX NSCLC
[19] = system: SNB-19 CNS
[20] = system: NCI-H226 lung
[21] = system: NCI-H460 lung
[22] = system: T-47D breast
[23] = system: TK-10 renal
[24] = system: SR leukemia
[25] = system: MALME-3M melanoma
[26] = system: UO-31 renal
[27] = system: HOP-92 NSCLC
[28] = system: LOX IMVI melanoma
[29] = system: SF-268 CNS
[30] = system: NCI-H522 lung
[31] = system: MCF7 breast
[32] = system: SF-539 CNS
[33] = system: KM12 colon
[34] = system: COLO 205 colon
[35] = system: HCC-2998 colon
[36] = system: 786-0 renal
[37] = system: HS 578T breast
[38] = system: UACC-257 melanoma
[39] = system: OVCAR-4 ovarian
[40] = system: HCT-116 colon
[41] = system: SNB-75 CNS
[42] = system: MDA-MB-435
[43] = system: A549 NSCLC
[44] = system: HL-60(TB) leukemia
[45] = system: IGROV1 ovarian
[46] = system: SK-MEL-28 melanoma
[47] = system: SN12C renal
[48] = system: HOP-62 NSCLC
[49] = system: MDA-MB-231 breast
[50] = system: SK-MEL-5 melanoma
[51] = system: SF-295 CNS
[52] = system: HT29 colon
[53] = system: U251 CNS
[54] = system: UACC-62 melanoma
[55] = system: NCI-H23 lung
[56] = system: BT-549 breast

CCn1c(SCC(=O)Nc2cccc(C(=O)/C=C/c3cc(OC)c(OC)c(OC)c3)c2)nc2ccccc2c1=O
GI50 [1]: 3.75 µM | TGI [1]: > 100 µM | GI50 [2]: 2.48 µM | TGI [2]: 7.05 µM | GI50 [3]: 3.16 µM | TGI [3]: > 100 µM | GI50 [4]: 2.29 µM | TGI [4]: 6.61 µM | GI50 [5]: 2.89 µM | TGI [5]: 15.4 µM | GI50 [6]: 2.15 µM | TGI [6]: 9.11 µM | GI50 [7]: 3.19 µM | TGI [7]: > 100 µM | GI50 [8]: 3.3 µM | TGI [8]: 15.3 µM | GI50 [9]: 2.9 µM | TGI [9]: > 100 µM | GI50 [10]: 2.57 µM | TGI [10]: > 100 µM | GI50 [11]: 3.55 µM | TGI [11]: > 100 µM | GI50 [12]: 2.27 µM | TGI [12]: 9.62 µM | GI50 [13]: 2.36 µM | TGI [13]: 6.12 µM | GI50 [14]: 2.36 µM | TGI [14]: 5.65 µM | GI50 [15]: 5.09 µM | TGI [15]: > 100 µM | GI50 [16]: 1.56 µM | TGI [16]: 7.82 µM | GI50 [17]: 16.2 µM | TGI [17]: 76.3 µM | GI50 [18]: 4.26 µM | TGI [18]: 56.7 µM | GI50 [19]: 3.89 µM | TGI [19]: > 100 µM | GI50 [20]: 1.91 µM | TGI [20]: 5.55 µM | GI50 [21]: 2.6 µM | TGI [21]: 11.7 µM | GI50 [22]: 5.08 µM | TGI [22]: > 100 µM | GI50 [23]: 7.08 µM | TGI [23]: > 100 µM | GI50 [24]: 1.29 µM | TGI [24]: > 100 µM | GI50 [25]: 6.52 µM | TGI [25]: > 100 µM | GI50 [26]: 1.7 µM | TGI [26]: 6.42 µM | GI50 [27]: 3.17 µM | TGI [27]: > 100 µM | GI50 [28]: 1.18 µM | TGI [28]: 2.63 µM | GI50 [29]: 4.13 µM | TGI [29]: > 100 µM | GI50 [30]: 2.86 µM | TGI [30]: 9.29 µM | GI50 [31]: 2.3 µM | TGI [31]: > 100 µM | GI50 [32]: 2.3 µM | TGI [32]: 5.77 µM | GI50 [33]: 1.89 µM | TGI [33]: 4.52 µM | GI50 [34]: 3.91 µM | TGI [34]: 89.1 µM | GI50 [35]: 2 µM | TGI [35]: 4.49 µM | GI50 [36]: 1.94 µM | TGI [36]: 3.92 µM | GI50 [37]: 3.64 µM | TGI [37]: > 100 µM | GI50 [38]: 12.5 µM | TGI [38]: > 100 µM | GI50 [39]: 5.52 µM | TGI [39]: > 100 µM | GI50 [40]: 1.73 µM | TGI [40]: 3.75 µM | GI50 [41]: 2.65 µM | TGI [41]: > 100 µM | GI50 [42]: 3.12 µM | TGI [42]: 48.2 µM | GI50 [43]: 3.05 µM | TGI [43]: 30.8 µM | GI50 [44]: 3.38 µM | TGI [44]: > 100 µM | GI50 [45]: 1.8 µM | TGI [45]: 4.31 µM | GI50 [46]: 3.66 µM | TGI [46]: > 100 µM | GI50 [47]: 3.86 µM | TGI [47]: > 100 µM | GI50 [48]: 2.46 µM | TGI [48]: 6.78 µM | GI50 [49]: 5.26 µM | TGI [49]: > 100 µM | GI50 [50]: 9.79 µM | TGI [50]: 32 µM | GI50 [51]: 4.1 µM | TGI [51]: 20.6 µM | GI50 [52]: 2.07 µM | TGI [52]: 4.39 µM | GI50 [53]: 2.35 µM | TGI [53]: 6.46 µM | GI50 [54]: 4.43 µM | TGI [54]: 76.7 µM | GI50 [55]: 2.63 µM | TGI [55]: 8.58 µM | GI50 [56]: 2.66 µM | TGI [56]: 9.31 µM
